We go through 2 compounds from article PMC10892719 (Pharmaceutics, 2024).

Each structure is given as a SMILES string.

Data set [1] concerns SH-SY5Y cells. Briefly: Neuroprotection against iron/ascorbate-induced toxicity, MTT. The data set is classed as cell-based, human. Conditions: ferrous sulfate 5 mM and L-ascorbic acid 2.5 mM, 24 h, optimized concentration of each compound. The protocol: (§1) Cell viability, following treatment with the compounds, was determined using the colorimetric MTT (3-(4,5-dimethylthiazol-2-yl)-2,5-diphenyltetrazolium bromide) assay. The tested compounds (5a1-3, 5b1-3, 5c1-3) were dissolved in DMSO to produce stock solutions of 25 mM and stored at −20 °C. A concentration screening was performed for 0.5 µM to 20 µM final concentrations to choose the highest nontoxic concentration. SH-SY5Y human neuroblastoma cell line (ATCC-CRL-2266) was cultured in Dulbecco’s modified Eagle’s medium (DMEM) (Gibco-Invitrogen, Life Technologies Ltd., Waltham, MA, USA) with heat-inactivated fetal calf serum (10%), penicillin (50 U/mL) and streptomycin (50 µg/mL) at 37 °C with 5% CO2. Cells were plated at 0.15 × 10^6 cells/mL one day prior to the start of the experiment. The cells were then incubated with the appropriate concentration of the compounds for 24 h. After the incubation period, the cells were washed once with PBS and incubated with 200 µL MTT (0.5 mg/mL) for 2 h at 37 °C with 5% CO2. During this period, cellular dehydrogenase successfully metabolized MTT into formazan, which was then solubilized using 200 µL of 0.04 M HCl/isopropanol. Absorbance was measured at 570 nm.
To test whether the compounds have a protective effect against toxicity induced by Aβ1-42 or iron/ascorbate, the cells were pre-incubated for 1 h with each compound, followed by the addition of Aβ1-42 or iron/ascorbate and incubation for an additional 24 h. Aβ1-42 (Bachem, Torrance, CA, USA) was prepared in sterile water to produce a stock solution of 443 µM and added to the cells at a final concentration of 1 µM. […] All data are expressed as mean ± SEM of at least three independent experiments performed in duplicate. […]
Figure 5 Neuroprotective effect of RIV-IND compounds against cellular toxicity induced by iron/ascorbate (Fe/Asc) measured by MTT reduction ability on SH-SY5Y cells pretreated with iron/ascorbate for one hour, followed by a 24 h incubation with the optimized concentration of each compound. […]

The target of a further data set is T1, Aβ1-42 (Homo sapiens, UniProt P05067).
T1 construct: purchased Genecust, Boynes, France
Briefly: Inhibition of Aβ1-42 self-aggregation, thioflavin T fluorescence. The data set is classed as biochemical. Conditions: Cinhibitor = 20 µM, Aβ1-42 40 µM, 37 °C, 24 h, read-out: Aβ42 Self-Aggreg. Inhib. As to the method:
The Aβ peptide (Genecust, Boynes, France) was treated with 1,1,1,3,3,3-hexafluoropropan-2-ol (HFIP, Aldrich, Steinheim, Germany) and dissolved in a CH3CN/Na2CO3 (300 µM)/NaOH (250 µM) ([…], v/v/v) mixture in order to have a stable stock solution of Aβ1-42 with concentration 500 µM.
Solutions of the assayed compounds (0.5 mg/mL) were firstly prepared in 60% (v/v) DMSO/MeOH medium and then diluted in phosphate buffer (0.215 M, pH 8.0) to a concentration of 120 µM. The Aβ1-42 aggregation inhibition assays were performed according to a reported method based on the fluorescence emission of thioflavin T (ThT, Aldrich Steinheim, Germany). Therefore, Aβ1-42 (40 µM) was incubated at 37 °C for 24 h in phosphate buffer and in the presence or absence of each ligand (20 µM). Then, the samples were added to a 96-well plate with 180 µL of 5 µM ThT in 50 mM glycine-NaOH (pH 8.5) buffer. Blank samples were identically prepared for each concentration but in the absence of the peptide. The ThT fluorescence was measured at 445 nm (excitation) and 485 nm (emission). The percent of aggregation inhibition was calculated by the following equation:I% = 100 − (IFi/IF0 × 100), in which IFi and IF0 are the fluorescence intensities, in the presence and the absence of the tested compound, subtracted from the fluorescence intensities due to the respective blanks. The reported values were obtained as the mean ± SEM of two different experiments performed in duplicate.
The inhibitory capacity of the RIV-IND hybrids towards Aβ42 self-aggregation was evaluated in vitro by molecular fluorescence spectroscopy through the thioflavin T (ThT) method. In fact, since there is an increase in the absorbance and emission of ThT when it binds to amyloid fibrils, it is possible to determine the percent of Aβ42 self-aggregation (see Table 1). The assays were performed in the presence of 20 µM of inhibitor to overcome the solubility limitations of some compounds in the phosphate buffer aqueous medium.

For data set [2], the system named is SH-SY5Y cells. Briefly: Cell viability dose-response screening, MTT. The data set is classed as cell-based, human. The protocol:
as §1
The new RIV-IND hybrids were tested to determine their protective role in the toxicity induced by either Aβ1-42 peptides or iron/ascorbate. SH-SY5Y cells were incubated with a set of concentrations of each of the compounds and a dose–response curve was constructed to select the highest nontoxic concentration.
Figure 3 Dose–response screening of RIV-IND compounds 5a1-3, 5b1-3 and 5c1-3 measured by MTT reduction ability on SH-SY5Y cells treated with different concentrations of the compounds for 24 h. Results are expressed relatively to untreated cells, with the mean ± standard error of the mean (SEM) derived from three independent experiments. * p < 0.05; ** p < 0.01; *** p < 0.001 compared to untreated cells. (The dot line indicates 100% cellular viability).

T1 sequence (P05067 672-713 limits assumed): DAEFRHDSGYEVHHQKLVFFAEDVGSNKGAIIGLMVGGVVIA

On to `CCN(C)C(=O)Oc1cccc(NC(=O)c2cc3cccc(O)c3[nH]2)c1` [Compound 5a3, 3-(7-Hydroxy-1H-indole-2-carboxamido)phenyl ethyl(methyl)carbamate], for which, in the data set on SH-SY5Y cells [1], the “neuroprotective effect against toxicity induced by iron/ascorbate” value was “also present a neuroprotective effect”. The inhibition at 20 µM at Aβ1-42 is 50.3%. In the data set on SH-SY5Y cells [2] (24 h, screening 0.5 µM to 20 µM), the highest nontoxic concentration is 2.5 µM.

For `CCN(C)C(=O)Oc1cccc(CNC(=O)c2cc3ccccc3[nH]2)c1` [Compound 5b1, 3-((1H-indole-2-carboxamido)methyl)phenyl ethylmethylcarbamate], the “neuroprotective effect against toxicity induced by iron/ascorbate” value in the data set with SH-SY5Y cells [1] is “also present a neuroprotective effect”. On Aβ1-42, the inhibition at 20 µM turned out to be 19.9%. In addition, the highest nontoxic concentration in the data set with SH-SY5Y cells [2] (when used with Aβ1-42) is reported as 2.5 µM; in the data set with SH-SY5Y cells [2] (when used with iron/ascorbate), 1 µM.
